According to patent publication US20230141101A1, “PDE4 INHIBITOR COMPOUND AND MEDICAL USE THEREOF” (Suzhou Longbotai Pharmaceuticals Co., Ltd., priority 2020, published 2023):

Experiments:
Type in all cases: biochemical
Conditions in all cases: 20 nM
PDE4D2 = PDE4D2 (Homo sapiens, UniProt Q08499); experiment: PDE4 inhibitory activity assay (FAM-cAMP enzymatic reaction), PDE4D2
Procedure, shortened: (§1)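 Read-out: fluorescence-based detection of FAM-cAMP turnover on a multilabel counter, with IC50 derived by fitting inhibition rates. The reaction ran 30 min at room temperature after a 15-min enzyme–compound preincubation, followed by stopping and 60 min further incubation.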

PDE4A1A = biological target: T1, PDE4A1A (Homo sapiens, UniProt P27815); experiment: PDE4 inhibitory activity assay (FAM-cAMP enzymatic reaction), PDE4A1A
T1 construct: purchased BPS 60040
Procedure, shortened: as §1

PDE4B1 = biological target: T2, PDE4B1 (Homo sapiens, UniProt Q07343); experiment: PDE4 inhibitory activity assay (FAM-cAMP enzymatic reaction), PDE4B1
T2 construct: purchased BPS 60041
Procedure, shortened: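 Each isoform is incubated with test compound for 15 min at room temperature before FAM-cAMP substrate starts a 30-min reaction.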

T2 sequence (Q07343 whole entry): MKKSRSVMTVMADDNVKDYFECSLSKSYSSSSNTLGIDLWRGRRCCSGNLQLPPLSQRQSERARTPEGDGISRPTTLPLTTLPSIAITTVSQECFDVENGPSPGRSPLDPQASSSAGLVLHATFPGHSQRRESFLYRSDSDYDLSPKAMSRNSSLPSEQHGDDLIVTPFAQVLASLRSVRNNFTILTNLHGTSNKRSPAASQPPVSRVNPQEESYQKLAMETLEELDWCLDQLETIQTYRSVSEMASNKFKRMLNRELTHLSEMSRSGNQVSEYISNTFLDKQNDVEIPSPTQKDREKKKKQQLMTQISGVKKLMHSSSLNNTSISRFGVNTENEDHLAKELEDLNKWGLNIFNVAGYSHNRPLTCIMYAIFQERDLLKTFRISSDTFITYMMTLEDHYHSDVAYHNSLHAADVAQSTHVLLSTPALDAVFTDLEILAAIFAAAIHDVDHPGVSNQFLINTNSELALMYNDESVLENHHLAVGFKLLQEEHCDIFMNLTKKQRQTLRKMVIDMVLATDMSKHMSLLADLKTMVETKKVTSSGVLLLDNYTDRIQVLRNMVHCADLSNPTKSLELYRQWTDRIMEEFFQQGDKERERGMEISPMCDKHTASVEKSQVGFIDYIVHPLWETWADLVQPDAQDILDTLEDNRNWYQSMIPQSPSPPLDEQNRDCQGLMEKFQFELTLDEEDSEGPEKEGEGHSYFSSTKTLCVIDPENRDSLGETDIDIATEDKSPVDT
T1 sequence (P27815 1-647 isoform P27815-4): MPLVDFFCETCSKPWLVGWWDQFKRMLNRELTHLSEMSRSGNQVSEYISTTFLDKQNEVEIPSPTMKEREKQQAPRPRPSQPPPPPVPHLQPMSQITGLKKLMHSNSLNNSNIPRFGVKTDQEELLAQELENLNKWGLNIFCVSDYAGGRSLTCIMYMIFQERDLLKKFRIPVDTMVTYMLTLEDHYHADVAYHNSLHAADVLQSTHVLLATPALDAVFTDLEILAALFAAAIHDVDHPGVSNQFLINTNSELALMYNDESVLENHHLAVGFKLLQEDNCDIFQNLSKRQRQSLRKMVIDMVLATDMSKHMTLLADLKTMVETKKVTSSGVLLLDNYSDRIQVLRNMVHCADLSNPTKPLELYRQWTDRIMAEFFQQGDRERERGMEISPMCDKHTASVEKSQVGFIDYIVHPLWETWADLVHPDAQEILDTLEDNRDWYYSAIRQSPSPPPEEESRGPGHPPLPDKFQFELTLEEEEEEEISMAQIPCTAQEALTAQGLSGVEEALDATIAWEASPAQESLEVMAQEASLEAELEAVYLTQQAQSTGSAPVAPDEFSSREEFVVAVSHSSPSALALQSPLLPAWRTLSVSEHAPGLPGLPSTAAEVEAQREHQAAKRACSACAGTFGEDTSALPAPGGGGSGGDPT
Sequence of PDE4D2 (Q08499 303-809): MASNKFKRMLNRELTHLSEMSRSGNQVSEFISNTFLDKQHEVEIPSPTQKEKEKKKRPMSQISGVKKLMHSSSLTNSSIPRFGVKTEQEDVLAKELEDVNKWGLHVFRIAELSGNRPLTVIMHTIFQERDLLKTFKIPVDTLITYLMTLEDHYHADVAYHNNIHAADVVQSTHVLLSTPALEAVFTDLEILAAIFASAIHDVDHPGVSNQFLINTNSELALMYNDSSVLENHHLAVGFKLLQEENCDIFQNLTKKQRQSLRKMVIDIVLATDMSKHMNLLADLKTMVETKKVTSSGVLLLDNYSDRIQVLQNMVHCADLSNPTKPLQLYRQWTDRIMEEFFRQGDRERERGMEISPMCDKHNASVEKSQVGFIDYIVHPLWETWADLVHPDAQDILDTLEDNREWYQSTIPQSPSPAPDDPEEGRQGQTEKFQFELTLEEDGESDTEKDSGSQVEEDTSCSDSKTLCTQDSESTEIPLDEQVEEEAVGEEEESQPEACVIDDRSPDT

CCOc1nc([C@@H](CS(C)(=O)=O)n2c(=O)[nH]c3cc(-c4c(C)cccc4C)cnc32)ccc1OC [Ex. 105, (S)-6-(2,6-dimethylphenyl)-3-(1-(6-ethoxy-5-methoxypyridin-2-yl)-2-(methylsulfonyl)ethyl)-1H-imidazo[4,5-b]pyridin-2(3H)-one]
+: PDE4 D2 inhibitory effect at 20 nM (PDE4D2) | PDE4 A1 inhibitory effect at 20 nM (PDE4A1A) | PDE4 B1 inhibitory effect at 20 nM (PDE4B1)

CCOc1nc([C@@H](CS(C)(=O)=O)n2c(=O)n(C)c3cc(-c4c(C)cccc4C)cnc32)ccc1OC [Ex. 106, (S)-6-(2,6-dimethylphenyl)-3-(1-(6-ethoxy-5-methoxypyridin-2-yl)-2-(methylsulfonyl)ethyl)-1-methyl-1H-imidazo[4,5-b]pyridin-2(3H)-one]
+: PDE4 D2 inhibitory effect at 20 nM (PDE4D2) | PDE4 A1 inhibitory effect at 20 nM (PDE4A1A) | PDE4 B1 inhibitory effect at 20 nM (PDE4B1)

CCOc1nc([C@@H](CS(C)(=O)=O)n2c(=O)[nH]c3cc(-c4ccc(F)cc4C)cnc32)ccc1OC [Ex. 107, (S)-6-(4-fluoro-2-methylphenyl)-3-(1-(6-ethoxy-5-methoxypyridin-2-yl)-2-(methylsulfonyl)ethyl)-1H-imidazo[4,5-b]pyridin-2(3H)-one]
+: PDE4 D2 inhibitory effect at 20 nM (PDE4D2) | PDE4 A1 inhibitory effect at 20 nM (PDE4A1A) | PDE4 B1 inhibitory effect at 20 nM (PDE4B1)

CCOc1nc([C@@H](CS(C)(=O)=O)n2c(=O)n(C)c3cc(-c4ccc(F)cc4C)cnc32)ccc1OC [Ex. 108, (S)-6-(4-fluoro-2-methylphenyl)-3-(1-(6-ethoxy-5-methoxypyridin-2-yl)-2-(methylsulfonyl)ethyl)-1-methyl-1H-imidazo[4,5-b]pyridin-2(3H)-one]
+: PDE4 D2 inhibitory effect at 20 nM (PDE4D2) | PDE4 A1 inhibitory effect at 20 nM (PDE4A1A) | PDE4 B1 inhibitory effect at 20 nM (PDE4B1)

CCOc1nc([C@@H](CS(C)(=O)=O)n2c(=O)[nH]c3cc(-c4cc(F)ccc4C)cnc32)ccc1OC [Ex. 109, (S)-6-(5-fluoro-2-methylphenyl)-3-(1-(6-ethoxy-5-methoxypyridin-2-yl)-2-(methylsulfonyl)ethyl)-1H-imidazo[4,5-b]pyridin-2(3H)-one]
+: PDE4 D2 inhibitory effect at 20 nM (PDE4D2) | PDE4 A1 inhibitory effect at 20 nM (PDE4A1A) | PDE4 B1 inhibitory effect at 20 nM (PDE4B1)

CCOc1nc([C@@H](CS(C)(=O)=O)n2c(=O)n(C)c3cc(-c4cc(F)ccc4C)cnc32)ccc1OC [Ex. 110, (S)-6-(5-fluoro-2-methylphenyl)-3-(1-(6-ethoxy-5-methoxypyridin-2-yl)-2-(methylsulfonyl)ethyl)-1-methyl-1H-imidazo[4,5-b]pyridin-2(3H)-one]
+: PDE4 D2 inhibitory effect at 20 nM (PDE4D2) | PDE4 A1 inhibitory effect at 20 nM (PDE4A1A) | PDE4 B1 inhibitory effect at 20 nM (PDE4B1)

CCOc1nc([C@@H](CS(C)(=O)=O)n2c(=O)[nH]c3cc(-c4cccc(F)c4C)cnc32)ccc1OC [Ex. 111, (S)-6-(3-fluoro-2-methylphenyl)-3-(1-(6-ethoxy-5-methoxypyridin-2-yl)-2-(methylsulfonyl)ethyl)-1H-imidazo[4,5-b]pyridin-2(3H)-one]
+: PDE4 D2 inhibitory effect at 20 nM (PDE4D2) | PDE4 A1 inhibitory effect at 20 nM (PDE4A1A) | PDE4 B1 inhibitory effect at 20 nM (PDE4B1)

CCOc1nc([C@@H](CS(C)(=O)=O)n2c(=O)n(C)c3cc(-c4cccc(F)c4C)cnc32)ccc1OC [Ex. 112, (S)-6-(3-fluoro-2-methylphenyl)-3-(1-(6-ethoxy-5-methoxypyridin-2-yl)-2-(methylsulfonyl)ethyl)-1-methyl-1H-imidazo[4,5-b]pyridin-2(3H)-one]
+: PDE4 D2 inhibitory effect at 20 nM (PDE4D2) | PDE4 A1 inhibitory effect at 20 nM (PDE4A1A) | PDE4 B1 inhibitory effect at 20 nM (PDE4B1)

CCOc1nc([C@@H](CS(C)(=O)=O)n2c(=O)[nH]c3cc(-c4cc(C)ccc4F)cnc32)ccc1OC [Ex. 113, (S)-6-(2-fluoro-5-methylphenyl)-3-(1-(6-ethoxy-5-methoxypyridin-2-yl)-2-(methylsulfonyl)ethyl)-1H-imidazo[4,5-b]pyridin-2(3H)-one]
+: PDE4 D2 inhibitory effect at 20 nM (PDE4D2) | PDE4 A1 inhibitory effect at 20 nM (PDE4A1A) | PDE4 B1 inhibitory effect at 20 nM (PDE4B1)

CCOc1nc([C@@H](CS(C)(=O)=O)n2c(=O)n(C)c3cc(-c4cc(C)ccc4F)cnc32)ccc1OC [Ex. 114, (S)-6-(2-fluoro-5-methylphenyl)-3-(1-(6-ethoxy-5-methoxypyridin-2-yl)-2-(methylsulfonyl)ethyl)-1-methyl-1H-imidazo[4,5-b]pyridin-2(3H)-one]
+: PDE4 D2 inhibitory effect at 20 nM (PDE4D2) | PDE4 A1 inhibitory effect at 20 nM (PDE4A1A) | PDE4 B1 inhibitory effect at 20 nM (PDE4B1)

CCOc1nc([C@@H](CS(C)(=O)=O)n2c(=O)[nH]c3cc(-c4ccc(C)cc4F)cnc32)ccc1OC [Ex. 115]
+: PDE4 D2 inhibitory effect at 20 nM (PDE4D2) | PDE4 A1 inhibitory effect at 20 nM (PDE4A1A) | PDE4 B1 inhibitory effect at 20 nM (PDE4B1)

CCOc1nc([C@@H](CS(C)(=O)=O)n2c(=O)n(C)c3cc(-c4ccc(C)cc4F)cnc32)ccc1OC [Ex. 116, (S)-6-(2-fluoro-4-methylphenyl)-3-(1-(6-ethoxy-5-methoxypyridin-2-yl)-2-(methylsulfonyl)ethyl)-1-methyl-1H-imidazo[4,5-b]pyridin-2(3H)-one]
+: PDE4 D2 inhibitory effect at 20 nM (PDE4D2) | PDE4 A1 inhibitory effect at 20 nM (PDE4A1A) | PDE4 B1 inhibitory effect at 20 nM (PDE4B1)

CCOc1nc([C@@H](CS(C)(=O)=O)n2c(=O)[nH]c3cc(-c4cc(F)ccc4OC)cnc32)ccc1OC [Ex. 117, (S)-6-(5-fluoro-2-methoxyphenyl)-3-(1-(6-ethoxy-5-methoxypyridin-2-yl)-2-(methylsulfonyl)ethyl)-1H-imidazo[4,5-b]pyridin-2(3H)-one]
+: PDE4 D2 inhibitory effect at 20 nM (PDE4D2) | PDE4 A1 inhibitory effect at 20 nM (PDE4A1A) | PDE4 B1 inhibitory effect at 20 nM (PDE4B1)

CCOc1nc([C@@H](CS(C)(=O)=O)n2c(=O)n(C)c3cc(-c4cc(F)ccc4OC)cnc32)ccc1OC [Ex. 118, (S)-6-(5-fluoro-2-methoxyphenyl)-3-(1-(6-ethoxy-5-methoxypyridin-2-yl)-2-(methylsulfonyl)ethyl)-1-methyl-1H-imidazo[4,5-b]pyridin-2(3H)-one]
+: PDE4 D2 inhibitory effect at 20 nM (PDE4D2) | PDE4 A1 inhibitory effect at 20 nM (PDE4A1A) | PDE4 B1 inhibitory effect at 20 nM (PDE4B1)

CCOc1nc([C@@H](CS(C)(=O)=O)n2c(=O)[nH]c3cc(-c4ccc(F)cc4OC)cnc32)ccc1OC [Ex. 119, (S)-6-(4-fluoro-2-methoxyphenyl)-3-(1-(6-ethoxy-5-methoxypyridin-2-yl)-2-(methylsulfonyl)ethyl)-1H-imidazo[4,5-b]pyridin-2(3H)-one]
+: PDE4 D2 inhibitory effect at 20 nM (PDE4D2) | PDE4 A1 inhibitory effect at 20 nM (PDE4A1A) | PDE4 B1 inhibitory effect at 20 nM (PDE4B1)

CCOc1nc([C@@H](CS(C)(=O)=O)n2c(=O)n(C)c3cc(-c4ccc(F)cc4OC)cnc32)ccc1OC [Ex. 120, (S)-6-(4-fluoro-2-methoxyphenyl)-3-(1-(6-ethoxy-5-methoxypyridin-2-yl)-2-(methylsulfonyl)ethyl)-1-methyl-1H-imidazo[4,5-b]pyridin-2(3H)-one]
+: PDE4 D2 inhibitory effect at 20 nM (PDE4D2) | PDE4 A1 inhibitory effect at 20 nM (PDE4A1A) | PDE4 B1 inhibitory effect at 20 nM (PDE4B1)

CCOc1nc([C@@H](CS(C)(=O)=O)n2c(=O)[nH]c3cc(-c4c(F)cccc4OC)cnc32)ccc1OC [Ex. 121, (S)-6-(6-fluoro-2-methoxyphenyl)-3-(1-(6-ethoxy-5-methoxypyridin-2-yl)-2-(methylsulfonyl)ethyl)-1H-imidazo[4,5-b]pyridin-2(3H)-one]
+: PDE4 D2 inhibitory effect at 20 nM (PDE4D2) | PDE4 A1 inhibitory effect at 20 nM (PDE4A1A) | PDE4 B1 inhibitory effect at 20 nM (PDE4B1)

CCOc1nc([C@@H](CS(C)(=O)=O)n2c(=O)[nH]c3cc(-c4ccccn4)cnc32)ccc1OC [Ex. 122, (S)-6-(pyridin-2-yl)-3-(1-(6-ethoxy-5-methoxypyridin-2-yl)-2-(methylsulfonyl)ethyl)-1H-imidazo[4,5-b]pyridin-2(3H)-one]
+: PDE4 D2 inhibitory effect at 20 nM (PDE4D2) | PDE4 A1 inhibitory effect at 20 nM (PDE4A1A) | PDE4 B1 inhibitory effect at 20 nM (PDE4B1)

CCOc1nc([C@@H](CS(C)(=O)=O)n2c(=O)n(C)c3cc(-c4ccccn4)cnc32)ccc1OC [Ex. 123, (S)-3-(1-(6-ethoxy-5-methoxypyridin-2-yl)-2-(methylsulfonyl)ethyl)-1-methyl-6-(pyridin-2-yl)-1H-imidazo[4,5-b]pyridin-2(3H)-one]
+: PDE4 D2 inhibitory effect at 20 nM (PDE4D2) | PDE4 A1 inhibitory effect at 20 nM (PDE4A1A) | PDE4 B1 inhibitory effect at 20 nM (PDE4B1)

CCOc1nc([C@@H](CS(C)(=O)=O)n2c(=O)n(CC)c3cc(-c4ccccn4)cnc32)ccc1OC [Ex. 124, (S)-3-(1-(6-ethoxy-5-methoxypyridin-2-yl)-2-(methylsulfonyl)ethyl)-1-ethyl-6-(pyridin-2-yl)-1H-imidazo[4,5-b]pyridin-2(3H)-one]
+: PDE4 D2 inhibitory effect at 20 nM (PDE4D2) | PDE4 A1 inhibitory effect at 20 nM (PDE4A1A) | PDE4 B1 inhibitory effect at 20 nM (PDE4B1)

CCOc1nc([C@@H](CS(C)(=O)=O)n2c(=O)n(CCOC)c3cc(-c4ccccn4)cnc32)ccc1OC [Ex. 125, (S)-3-(1-(6-ethoxy-5-methoxypyridin-2-yl)-2-(methylsulfonyl)ethyl)-1-(2-methoxyethyl)-6-(pyridin-2-yl)-1H-imidazo[4,5-b]pyridin-2(3H)-one]
+: PDE4 D2 inhibitory effect at 20 nM (PDE4D2) | PDE4 A1 inhibitory effect at 20 nM (PDE4A1A) | PDE4 B1 inhibitory effect at 20 nM (PDE4B1)
